Results: patent publication US5688807A, “Method for treating 5HT2B receptor related conditions” (Eli Lilly and Company, priority 1995, dated 1997)
Like-named read-outs stand apart in the source and are kept apart here.

How the values were obtained:
distal colon = test: Functional in vitro assay: antagonism of serotonin contraction of rat distal colon longitudinal muscle; conditions: vs serotonin
Excerpt: Functional In vitro Assay:
Sprague-Dawley rats (200-250g; Laboratory Supply, Indianapolis, Ind.) were sacrificed by cervical dislocation and 8 cm segment of distal colon was removed and washed in ice cold modified Kreb's solution of the following composition (millimolar): Nacl, 118.2; Kcl, 4.6; Cacl2. H2 O, 1.6; KH2 PO4, 1.2; MgSO4, 1.2; dextrose, 10.0; and NaHCO3, 24.8. The colon was mounted on a glass rod and the longitudinal muscle layer with attached myenteric plexi was removed and mounted in organ baths, containing above described Kreb's solution maintained at 37° C. and equilibrated with 95% O2 and 5% CO2. Tissues were placed under 2 g tension and allowed to stabilize for 1 hour. Isometric contractions were recorded as changes in grams of force using grass FT03 transducers and MI^2 - computerized dynograph system. Cumulative concentration-response curves for serotonin were obtained by a stepwise increase in concentration after washing out the preceding concentration for 10-15 minutes. Each agonist concentration remained in contact with the tissue for 5 minutes. Maximum response to each concentration was determined and digitized. EC50 values were taken as the concentration of agonist that produced half maximal contraction. After control responses were obtained, tissues were incubated with an appropriate concentration of antagonist for 15 minutes. Response to serotonin were then repeated in the presence of an antagonist. Concentration-response utilized only one concentration of antagonist per tissue. Apparent antagonist dissociation constants (KB) were determined for each concentration of antagonist according to the following equation:
KB =[B]/(dose ratio-1), where [B] is the concentration of the antagonist and dose ratio is the ED50 of the agonist in the presence of antagonist divided by the control ED50. The results were expressed as the negative logarithm of the KB (i.e., -log KB) (Br. J. Pharmacol. Methods 4:4165, (1980).
The functional in vitro method described supra. was used to test compounds of this invention. Values are expressed as pKi and pA2 (-log KB). The following table illustrates the results obtained when the compounds were tested using the Radioligand assay supra. (pKi) and the functional in vitro method described supra. (pA2)

Human 5-HT2A = Human 5-HT2A (Homo sapiens, UniProt P28223); test: [125I]DOI radioligand binding, human 5-HT2A
rat 5-HT2B receptor = rat 5-HT2B receptor (Rattus norvegicus, UniProt P30994); test: biochemical; type: binding;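 also: displacement of [3H]5-HT from membranes of suspension cells carrying cloned rat 5-HT2B receptor, incubated 15 min at 37 °C or 2 h at 0 °C, filter-bound radioactivity counted by scintillation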
Human 5-HT2B = biological target: T1, Human 5-HT2B (Homo sapiens, UniProt P41595); test: [3H]Serotonin radioligand binding, human 5-HT2B;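 also: competition of tritiated serotonin binding to cell membranes, bound radioactivity on filters counted by liquid scintillation, IC50 from logistic fits converted to Ki with the Cheng-Prusoff equation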
T1 construct: expressed in transfected cells

Rat 5-HT2A = Rat 5-HT2A (Rattus norvegicus, UniProt P14842); test: [125I]DOI radioligand binding, rat 5-HT2A; conditions: AVG
[1] = [3H]Serotonin; 5-HT2B cells; AVG; read-out: Ki Rat 5-HT2B
[2] = [3H]Serotonin, 5-HT2B cells, AVG, read-out: Ki Human 5-HT2B
[3] = read-out: Ki Human 5-HT2A, [125I]DOI, AVG
[4] = [125I]DOI, AVG, read-out: Ki Human 5-HT2A
[5] = Ki Rat 5-HT2B, [3H]Serotonin; 5-HT2B cells; AVG

Sequence of rat 5-HT2B receptor (P30994 whole entry): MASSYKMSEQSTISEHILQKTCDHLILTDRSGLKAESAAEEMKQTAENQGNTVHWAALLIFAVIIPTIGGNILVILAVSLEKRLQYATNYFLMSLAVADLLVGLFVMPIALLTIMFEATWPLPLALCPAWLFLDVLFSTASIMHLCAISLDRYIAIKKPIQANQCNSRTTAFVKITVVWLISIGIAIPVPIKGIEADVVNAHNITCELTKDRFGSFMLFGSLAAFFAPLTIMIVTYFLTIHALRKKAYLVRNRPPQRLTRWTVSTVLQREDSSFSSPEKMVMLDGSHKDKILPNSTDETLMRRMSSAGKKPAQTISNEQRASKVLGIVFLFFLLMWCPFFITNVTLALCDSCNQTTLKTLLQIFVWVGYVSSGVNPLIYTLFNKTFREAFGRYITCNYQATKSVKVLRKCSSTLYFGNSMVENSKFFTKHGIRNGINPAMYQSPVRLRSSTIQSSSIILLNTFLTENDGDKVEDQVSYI
Sequence of Human 5-HT2A (P28223 whole entry): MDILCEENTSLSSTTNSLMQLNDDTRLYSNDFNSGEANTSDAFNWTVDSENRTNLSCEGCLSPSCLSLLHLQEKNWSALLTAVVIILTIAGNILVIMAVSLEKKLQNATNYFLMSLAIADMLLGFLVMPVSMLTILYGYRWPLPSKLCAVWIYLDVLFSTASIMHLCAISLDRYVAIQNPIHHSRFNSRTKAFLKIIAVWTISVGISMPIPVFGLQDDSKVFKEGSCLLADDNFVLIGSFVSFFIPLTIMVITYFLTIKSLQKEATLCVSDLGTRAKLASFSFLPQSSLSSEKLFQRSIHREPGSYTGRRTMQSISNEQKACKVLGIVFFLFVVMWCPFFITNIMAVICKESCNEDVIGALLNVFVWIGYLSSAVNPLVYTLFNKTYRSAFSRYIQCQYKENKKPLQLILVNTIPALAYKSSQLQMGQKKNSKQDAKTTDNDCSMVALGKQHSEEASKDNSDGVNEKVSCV
T1 sequence (P41595 whole entry): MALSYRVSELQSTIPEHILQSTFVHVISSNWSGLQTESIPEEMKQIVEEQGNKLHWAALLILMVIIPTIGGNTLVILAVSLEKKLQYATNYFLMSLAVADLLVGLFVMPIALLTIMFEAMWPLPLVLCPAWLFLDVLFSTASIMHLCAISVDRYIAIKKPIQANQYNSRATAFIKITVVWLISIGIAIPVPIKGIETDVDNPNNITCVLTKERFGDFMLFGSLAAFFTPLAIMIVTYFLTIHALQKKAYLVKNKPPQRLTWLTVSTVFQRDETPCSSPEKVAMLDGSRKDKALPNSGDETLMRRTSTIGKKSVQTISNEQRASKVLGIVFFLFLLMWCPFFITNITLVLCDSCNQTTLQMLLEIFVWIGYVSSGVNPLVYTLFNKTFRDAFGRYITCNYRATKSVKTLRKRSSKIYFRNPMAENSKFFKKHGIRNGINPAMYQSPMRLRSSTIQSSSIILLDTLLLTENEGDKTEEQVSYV
Sequence of Rat 5-HT2A (P14842 whole entry): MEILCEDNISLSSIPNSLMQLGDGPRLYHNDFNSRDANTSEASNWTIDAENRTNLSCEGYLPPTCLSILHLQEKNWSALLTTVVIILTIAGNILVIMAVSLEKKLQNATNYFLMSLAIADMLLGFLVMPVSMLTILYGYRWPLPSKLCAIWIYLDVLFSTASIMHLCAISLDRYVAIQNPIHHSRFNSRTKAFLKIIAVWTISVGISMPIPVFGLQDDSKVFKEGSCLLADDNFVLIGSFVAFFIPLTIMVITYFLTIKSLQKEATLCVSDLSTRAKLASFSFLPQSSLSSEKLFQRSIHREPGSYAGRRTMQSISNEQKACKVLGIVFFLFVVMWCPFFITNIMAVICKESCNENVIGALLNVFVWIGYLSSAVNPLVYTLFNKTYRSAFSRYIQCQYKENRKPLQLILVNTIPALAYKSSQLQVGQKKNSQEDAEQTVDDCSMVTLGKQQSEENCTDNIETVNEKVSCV

Brc1ccc2[nH]c3c(c2c1)CCNC3 [6-bromo-1,2,3,4-tetrahydro-9H-pyrido[3,4b]-indole]
pA2 (-log KB) (distal colon): 8.2

Cc1ccc2c3c([nH]c2c1I)CNCC3
Ki (Human 5-HT2A): 17.8 nM
Ki (rat 5-HT2B receptor; [1]): 15.3 nM
Ki (Human 5-HT2B; [2]): 10.2 nM

CCCN(CCC)C1CCc2cccc(-c3ccno3)c2C1 (single isomer, unassigned)
Ki (Human 5-HT2A; [3]): 6160 nM
Ki (rat 5-HT2B receptor; read-out: Ki Rat 5-HT2B; [3H]Serotonin; 5-HT2B cells; AVG): 79.3 nM
Ki (Human 5-HT2B; [2]): 215 nM

CN1CC(C(=O)N[C@H]2CC[C@H](O)CC2)CC2c3cccc4[nH]cc(c34)CC21 (some centres unmarked)
Ki (Rat 5-HT2A): 5.36 nM
Ki (Human 5-HT2A; [4]): 1.25 nM
Ki (rat 5-HT2B receptor; [5]): 44.6 nM
Ki (Human 5-HT2B): 12.4 nM

CCc1ccc2[nH]c3c(c2c1)CCNC3Cc1ccc(OC)c(OC)c1 (centres unmarked) [drawing 143]
Ki (Human 5-HT2A): 23.4 nM
Ki (rat 5-HT2B receptor; [1]): 8.16 nM
Ki (Human 5-HT2B; [2]): 1.5 nM

CCCN(CCC)[C@@H]1CCc2cccc(-c3ccon3)c2C1
Ki (Human 5-HT2A): 127 nM
Ki (Human 5-HT2B; [2]): 784 nM

CC(C)n1cc2c3c(cccc31)C1CC(C(=O)NC3CCCCC3O)CN(C)C1C2 (centres unmarked) [drawing 86]
Ki (Rat 5-HT2A): 2.39 nM
Ki (Human 5-HT2A; [4]): 15.8 nM
Ki (rat 5-HT2B receptor; [5]): 8.61 nM

c1ccc2c(N3CCNCC3)cccc2c1
Ki (rat 5-HT2B receptor; [1]): 4.5 nM
Ki (Human 5-HT2B): 3.79 nM

Cc1cc(Br)c2[nH]c3c(c2c1)CCNC3 [drawing 168]
Ki (Rat 5-HT2A): 47 nM
Ki (Human 5-HT2A): 41.7 nM

CC(C)n1cc2c3c(cccc31)C1CC(C(=O)NC3CCCCC3O)CN(C)C1C2 (centres unmarked) [drawing 87]
Ki (Rat 5-HT2A): 2.44 nM
Ki (Human 5-HT2A; [4]): 18.6 nM
Ki (rat 5-HT2B receptor; [5]): 9.35 nM

Cc1ccc2c3c([nH]c2c1C)CNCC3 [Example 72, 7,8-dimethyl-1,2,3,4-tetrahydro-9H-pyrido[3,4b]-indole]
pA2 (-log KB) (distal colon): 7.5
pKi (rat 5-HT2B receptor; Radioligand assay; Table III): 7.8

Cc1ccc2[nH]c3c(c2c1)CCNC3C(C)c1cccc2ccccc12 (centres unmarked)
Ki (Human 5-HT2A): 5.62 nM
Ki (rat 5-HT2B receptor; [1]): 3.94 nM
Ki (Human 5-HT2B; [2]): 1.29 nM

COc1ccc(C(C)C2NCCc3c2[nH]c2ccc(C(C)C)cc32)cc1OC (centres unmarked)
Ki (Human 5-HT2A): 201 nM
Ki (Human 5-HT2B; [2]): 3.46 nM

Cc1ccc2c(CCN)c[nH]c2c1Cl
Ki (Rat 5-HT2A): 20.7 nM
Ki (Human 5-HT2A; [4]): 27.6 nM
Ki (rat 5-HT2B receptor; [5]): 7.94 nM
Ki (Human 5-HT2B): 11.2 nM

Cc1ccc2[nH]c3c(c2c1)CCNC3Cc1ccc(N(C)C)c2ccccc12 (centres unmarked)
Ki (Human 5-HT2A): 0.83 nM
Ki (rat 5-HT2B receptor; [1]): 5.02 nM
Ki (Human 5-HT2B; [2]): 1.64 nM

CC(C)n1cc2c3c(cccc31)C1CC(C(=O)N[C@H]3CC[C@H](O)CC3)CN(C)C1C2 (some centres unmarked)
Ki (Rat 5-HT2A): 2.82 nM
Ki (Human 5-HT2A; [4]): 21.2 nM
Ki (rat 5-HT2B receptor; [5]): 30.9 nM
Ki (Human 5-HT2B): 6.24 nM

COc1ccc(CC2NCCc3c2[nH]c2c(Cl)c(C)ccc32)cc1OC (centres unmarked)
Ki (Human 5-HT2A): 0.93 nM
Ki (rat 5-HT2B receptor; [1]): 3.19 nM
Ki (Human 5-HT2B; [2]): 0.84 nM

CCCN(CCC)[C@H]1CCc2cccc(-c3ccon3)c2C1
Ki (Human 5-HT2A): 5690 nM
Ki (Human 5-HT2B; [2]): 257 nM

CCCNC1CCc2cccc(-c3ccno3)c2C1 (centres unmarked)
Ki (Human 5-HT2A): 6030 nM
Ki (Human 5-HT2B; [2]): 1020 nM

Cc1ccc2c(CCN)c[nH]c2c1Br
Ki (Rat 5-HT2A): 14.2 nM
Ki (Human 5-HT2A; [4]): 33.7 nM
Ki (rat 5-HT2B receptor; [5]): 11.3 nM

CC(C)n1cc2c3c(cccc31)C1CC(C(=O)NC3CCCCC3O)CN(C)C1C2 (centres unmarked) [drawing 84]
Ki (Rat 5-HT2A): 8.91 nM
Ki (Human 5-HT2A; [4]): 74.5 nM
Ki (rat 5-HT2B receptor; [5]): 10.2 nM

Brc1cccc2c3c([nH]c12)CNCC3
Ki (Rat 5-HT2A): 25.6 nM
Ki (Human 5-HT2A): 22.7 nM

COc1ccc(CC2NCCc3c2[nH]c2c(C)cccc32)cc1OC (centres unmarked) [drawing 182]
Ki (Human 5-HT2A): 49.7 nM
Ki (Human 5-HT2B; [2]): 1.69 nM

CCc1ccc2[nH]c3c(c2c1)CCNC3Cc1cccc2ccccc12 (centres unmarked)
Ki (Human 5-HT2A): 6.71 nM
Ki (Human 5-HT2B; [2]): 2.08 nM

CCCN(CCC)C1CCc2cccc(-c3ccno3)c2C1 (centres unmarked)
Ki (Human 5-HT2A; [3]): 354 nM
Ki (Human 5-HT2B; [2]): 509 nM
